Reference: patent publication US8106034B2, “Angiotensin II receptor antagonists” (Merck Sharp & Dohme Corp., priority 2008, dated 2012)

Tested on: isolated rabbit thoracic aorta preparations
Assay: Vessel relaxation in isolated rabbit thoracic aorta preparations
Settings: Oryctolagus cuniculus; in vitro, rabbit aortic rings precontracted with noradrenaline, functional endothelium present
Protocol: The ability of the compounds to induce vasorelaxation was tested in vitro in isolated rabbit thoracic aorta preparations (Wanstall J. C. et al., Br. J. Pharmacol., 134:463-472, 2001). Male New Zealand rabbits were anaesthetized with thiopental-Na (50 mg/kg, iv), sacrificed by exsanguinations and then the thorax was opened and the aorta dissected. Aortic ring preparations (4 mm in length) were set up in physiological salt solution (PSS) at 37° C. in small organ chambers (5 ml). The composition of PSS was (mM): NaCl 130, NaHCO3 14.9, KH2PO4 1.2, MgSO4 1.2, HEPES 10, CaCl2, ascorbic acid […] and glucose 1.1 (95% O2/5% CO2; pH 7.4). Each ring was mounted under 2 g passive tension. Isometric tension was recorded with a Grass transducer (Grass FT03) attached to a BIOPAC MP150 System. Preparations were allowed to equilibrate for 1 h, and then contracted submaximally with noradrenaline (NA, 1 μM) and, when the contraction was stable, acetylcholine (ACh, 10 μM) was added. A relaxant response to ACh indicated the presence of a functional endothelium. […] When a stable precontraction was reached, a cumulative concentration-response curve to either of the vasorelaxant agents was obtained in the presence of a functional endothelium. Each arterial ring was exposed to only one combination of inhibitor and vasorelaxant. […]
Examples 3 and 5 were evaluated for vessel relaxation.

EC50 [µM] | SMILES
5.3 | CCCCc1nc(Cl)c(C(=O)OCO/N=[N+](\[O-])N2CCCCC2CO)n1Cc1ccc(-c2ccccc2-c2nnn[nH]2)cc1 (centres unmarked) [Example 3, O^2-({[(2-butyl-4-chloro-1-{[2′-(1H-tetrazol-5-yl)biphenyl-4-yl]methyl}-1H-imidazol-5-yl)carbonyl]oxy}methyl)1-[2-(hydroxymethyl)piperidin-1-yl]diazen-1-ium-1,2-diolate]
18.7 | CCCCc1nc(Cl)c(C(=O)OCO/N=[N+](\[O-])N2CCC[C@H]2C(=O)O)n1Cc1ccc(-c2ccccc2-c2nnn[nH]2)cc1 [Example 5, O^2-({[(2-butyl-4-chloro-1-{[2′-(1H-tetrazol-5-yl)biphenyl-4-yl]methyl}-1H-imidazol-5-yl)carbonyl]oxy}methyl)1-[2S-(carboxylato)pyrrolidin-1-yl]diazen-1-ium-1,2-diolate]
